Test results as given in PMC12864978, “Covalent modification of a glutamic acid inspired by HaloTag technology” (Nature Communications, 2026).
“Also recorded” adds a separate entry of the source. Where two headings read alike, the source gives them in different places.

What was measured:
[1] = target: T1, PDEδ (Homo sapiens, UniProt O43924); assay: Differential scanning fluorimetry (NanoDSF); format: binding; parameters: His tag; made in house; host or cells: Escherichia coli Rosetta (BL21DE3), pET plasmids; settings: PDEδ 20 µM, compound 60 µM; mean ± s.d., Fig. 2e; read-out: melting temperature shift ΔTm (NanoDSF)
Protocol: Afterwards, a sample of the solution was cooled down to room temperature and was loaded onto a capillary, followed by the measurement of fluorescence intensities at 350 nm and 330 nm from 20 °C up to 90 °C (with a rate of increment of 1 °C/min) using the Prometheus Panta device (NanoTemper® Technologies, DE).

[2] = target: T1, PDEδ; assay: Competitive fluorescence polarisation assay (FA probe displacement); format: binding; parameters: His tag; made in house; host or cells: Escherichia coli Rosetta (BL21DE3), pET plasmids; settings: PDEδ 40 nM, FA probe 24 nM, room temperature overnight
[3] = Compound stability in aqueous buffers; format: physicochemical
Protocol: (§1) Compound (1 mM) was incubated with the respective buffers (HEPES 20 mM, 150 mM NaCl, pH = 7.5; 0.2 M sodium acetate buffer, pH = 5.6; 0.2 M sodium citrate buffer, pH = 6.2; 0.2 M potassium phosphate buffer, pH = 7.4, 1 mM EDTA, with or without 10 mM GSH), with 1% DMSO adjusted for all conditions. […] Per cent (%) compound remaining in the solution was estimated by the ratio of areas under the curve, and data plotted were fitted to pseudo-1st kinetics in the calculation of rate constants (k) and half-lives (t1/2), where k is the negative slope of a linear regression of In (% compound remaining) over time. Half-lives (t1/2) in respective buffers and half-lives for GSH adduct formation (t1/2 GSH) were calculated with the following equations:1 t1/2=In2/k 2 kGSH=ktotalconsumptioninphosphatebufferinpresenceofGSH−k(phosphatebufferinabsenceofGSH) 3 t1/2GSH=In2/k(GSH) […]
(§2) a, Percentage (%) of compound remaining was monitored by HPLC-MS and data was fitted to pseudo-first kinetics in calculation of rate constants (k) and half-lives (t1/2) in respective buffers, where k is the negative slope of a linear regression of In (% compound remaining) over time and t 1/2 = In2/k. Initial […]
(§3) Initial GSH concentration =

[4] = target: T1, PDEδ; assay: Covalent modification of PDEδ by MALDI mass spectrometry; format: binding; parameters: His tag; made in house; host or cells: Escherichia coli Rosetta (BL21DE3), pET plasmids; settings: PDEδ 20 µM, compound 60 µM, HEPES pH 7.5, 37 °C; mean ± s.e.m.
Protocol: The solution was briefly centrifuged before a sample was taken at the designated time for analysis by MALDI. […] Mass spectra were obtained over the m/z range 15,000–25,000 using a Bruker UltrafleXtreme XIAL DI-TOF/TOF mass spectrometer. Percentages of covalent adduct formation were estimated by the relative intensity of the respective peaks in MALDI spectra.
1. Supplementary Figures and Tables
PDEδ (20 µM) was incubated with compounds (60 µM) in HEPES
Percentages of covalent adduct formation were estimated by the relative intensity of the respective peaks in MALDI spectra. Data are presented as mean ± s.e.m.
Apparent pseudo -first order kobs was estimated by percentages of covalent adduct formation at 2 hours by MALDI. Plot of kobs (h-1) against concentration (µM) was fitted by GraphPad […]
Prism Michaelis-Menten model and separate values for kinact and KI were obtained to calculate apparent […]
PDEδ (20 µM) was incubated with
Data are presented as mean ± s.e.m.
HEPES buffer, n = 3 for the rest). One-way ANOVA with matched time-points, with Geisser-

[5] = GSH adduct formation (stability in the presence of GSH); format: physicochemical; settings: phosphate buffer with 10 mM GSH; 10-fold excess of GSH at 10 mM, phosphate buffer pH 7.4, 37 °C; read-out: half-life for GSH adduct formation t1/2 GSH (converted)
Protocol: as §1, §2, §3

[6] = target: T1, PDEδ; assay: Mass spectrometry analysis of PDEδ adducts after Glu-C digestion; format: binding; parameters: His tag; made in house; host or cells: Escherichia coli Rosetta (BL21DE3), pET plasmids; settings: LC-MS/MS, 10:1 compound to protein
Protocol: For each replicate, 1.5 µg covalent adduct of PDEδ sample in PBS buffer was denatured, reduced, alkylated and digested by Glu-C and desalted, together with a negative control of unbound vehicle-treated PDEδ sample prior to mass spectrometry analysis. […] The final mixture containing 6.5 M guanidine hydrochloride was heated at 95 °C for 15 min. Subsequently, after cooling, 0.5 µl of a 50 mM dithiothreitol (DTT, cas 3483-12-3, Gerbu Biotechnik, #1008-100 g) solution was added. […] . Samples were incubated at 37 °C overnight with shaking at 400 rpm, protected from light. […] Desalting was carried out with stage tips with C18 extraction discs (Empore^TM high performance extraction discs, 47 mm, 3 M Bioanalytical Technologies #2215). Each stage tip, which consists of two stacked layers of C18 discs, was activated with methanol (100 µl), washed once with buffer B (100 µl, 0.1% formic acid, 80% acetonitrile), and twice with buffer A (100 µl/time, 0.1% formic acid). After sample loading and washing with buffer A once, the desalted sample was eluted with buffer B (20 µl/sample) and centrifuged at 500×g at room temperature for 5 min. Eluted samples were then dried in a SpeedVac at 30 °C.
Data evaluation was performed using MaxQuant software (v.2.2.0.0)[52]. […] Cleavages by Glu-C were analysed based on the enzyme that was used for digestion. […]

[7] = system: SW480 cells; assay: Real-time cell analysis (Incucyte) of proliferation; format: cell-based, human
Protocol: (§4) Real-time cell analysis (RTCA) was conducted using an Incucyte S3 live-cell analysis system (Sartorius AG, Germany). […] Following attachment overnight, the medium was replaced with fresh medium containing test compounds, with all conditions adjusted to contain 0.5% DMSO. […] Phase-contrast images (2 images per well) were automatically captured at 2-h intervals until control wells (DMSO-treated) reached full confluency. Cell growth was quantified using the instrument’s integrated Basic Analyser module by applying a confluence mask to calculate the percentage of phase area confluence. […] Dose-response curves were generated and fitted via four-parameter variable slope nonlinear regression to determine cellular IC₅₀ values.

[8] = system: NCI-H358 cells; assay: as above; format: cell-based, human; settings: read-out: cellular IC50
Protocol: as §4

[9] = system: BxPC-3 cells; assay: as above; format: cell-based, human
Protocol: as §4

[10] = system: MIA PaCa-2 cells; assay: as above; format: cell-based, human
Protocol: as §4

[11] = system: PA-TU-8902 cells; assay: as above; format: cell-based, human
Protocol: as §4

[12] = system: panel of human cell lines; assay: Cytotoxicity screening in a panel of human cell lines; format: cell-based; settings: concentrations up to 25 µM
Protocol: Real-time cell analysis (RTCA) was conducted using an Incucyte S3 live-cell analysis system (Sartorius AG, Germany). Adherent cell lines were seeded at 5 × 10³ cells per well in 96-well plates containing 100 µl of culture medium and incubated overnight at 37 °C with 5% CO₂. Following attachment overnight, the medium was replaced with fresh medium containing test compounds, with all conditions adjusted to contain 0.5% DMSO. […] Phase-contrast images (2 images per well) were automatically captured at 2-h intervals until control wells (DMSO-treated) reached full confluency. Cell growth was quantified using the instrument’s integrated Basic Analyser module by applying a confluence mask to calculate the percentage of phase area confluence. For dose-response assessment, confluence values at 72 h post-treatment were normalised to the DMSO control and analysed using GraphPad Prism 9.5.1 (GraphPad Software, USA). Dose-response curves were generated and fitted via four-parameter variable slope nonlinear regression to determine cellular IC₅₀ values.
representative of biological replicates n = 3.
comet images for each condition were shown.
time live-cell imaging by Incucyte.
Source data are provided as […]

[13] = system: Rheb localisation in PA-TU-8902 cells; assay: Immunofluorescence staining of Rheb; format: cell-based, human; settings: 5 µM, overnight
Protocol: Immunostaining: compound-treated PA-TU-8902 cells were washed once with cold PBS, fixed with 3.7% paraformaldehyde in PBS by incubation at room temperature for 10 min and permeabilised with 0.3% Triton X-100 in PBS by incubation at room temperature for 15 min. […] After washing with PBS-T three times, PBS-incubated cells were imaged with Observer Z1 (Carl Zeiss, Germany) with a 63× oil objective.

[14] = target: UNC119B (Homo sapiens, UniProt A6NIH7); assay: Mass spectrometry analysis of UNC119B adducts after Lys-C digestion; settings: 10 eq., overnight at 37 °C; including binding pocket p.E174
[15] = target: PDEδ; settings: previously developed PDEδ inhibitor chemotypes, Fig. 1b; read-out: KD (reported binding affinity); cited from earlier work
[16] = Homo sapiens, 72 h, read-out: cellular IC50

With Cc1ccc(-n2nc3c(=O)n(CCCCS(=O)(=O)N(CCCCCCCCl)CC4CCNCC4)nc(C)c3c2C)cc1 [5h] the ΔTm at 60 µM [1] was 11.3 ± 0.6 °C and the IC50 [2] was 0.0137 ± 0.0034 µM.

With Cc1ccc(-n2nc3c(=O)n(CCCCS(=O)(=O)N(CCCCCCCBr)CC4CCNCC4)nc(C)c3c2C)cc1 [5e] the half-life at 1 mM ([3]; HEPES buffer, pH 7.5, 37 °C, compound 1 mM, read-out: half-life t1/2 in HEPES buffer (converted)) was 85 h, the half-life at 1 mM ([3]; acetate buffer, pH 5.6, 37 °C, read-out: half-life t1/2 in acetate buffer (converted)) was 43 h and the “% covalent modification at 24 h” value [4] was 62 ± 10%. For the same molecule, the ΔTm at 60 µM [1] was 14.7 ± 1.2 °C, the half-life at 1 mM [5] was 180 days and the “site of covalent modification in PDEδ” value [6] was “either at p.E88 or p.E89”. It also gave an IC50 [2] of 0.017 ± 0.0061 µM.

For Cc1ccc(-n2nc3c(=O)n(CCCC(=O)N(CCCCCCl)CC4CCNCC4)nc(C)c3c2C)cc1 [3b], the “% covalent modification at 24 h” value [4] was “not reactive enough to yield any detectable covalent adduct”.

In the case of Cc1ccc(-n2nc3c(=O)n(CCCC(=O)N(CCCBr)CC4CCNCC4)nc(C)c3c2C)cc1 [3c], the “% covalent modification at 24 h” value [4] is reported as “not reactive enough to yield any detectable covalent adduct”.

Molecule Cc1ccc(-n2nc3c(=O)n(CCCCS(=O)(=O)N(CCc4cccc(CCCl)c4)CC4CCNCC4)nc(C)c3c2C)cc1 [6b] has an IC50 [7, 16] of over 50 µM, an IC50 ([8]; Homo sapiens, NCI-H358, 72 h, NCI-H358, 72 h) of 6.8 ± 1.9 µM and an IC50 ([8]; NCI-H358, 72 h) of 6.3 ± 1.9 µM. It also gave an IC50 [9, 16] of over 26 µM, an IC50 ([10]; Homo sapiens, MIA PaCa-2, 72 h, read-out: cellular IC50) of 10.9 ± 1.9 µM and an IC50 ([11]; Homo sapiens, PaTu 8902, PA-TU-8902, 72 h, read-out: cellular IC50) of 12 ± 1 µM. For the same molecule, the ΔTm at 60 µM [1] was 11.1 ± 0.6 °C, the general cytotoxicity [12] was “not observed” and the IC50 [2] was 0.0082 ± 0.004 µM.

In the case of Cc1ccc(-n2nc3c(=O)n(CCCC(=O)N(CCCCl)CC4CCNCC4)nc(C)c3c2C)cc1 [3a], the “% covalent modification at 24 h” value [4] is reported as “not reactive enough to yield any detectable covalent adduct”.

With Cc1ccc(-n2nc3c(=O)n(CCCC(=O)NCC(C)c4ccccc4)nc(C)c3c2C)cc1 (centres unmarked) [Deltazinone 1, reference compound] the growth inhibition ([7]; doses up to 50 µM) was “little or no growth inhibition”, the IC50 ([8]; Homo sapiens, NCI-H358, 72 h) was 0.14 ± 0.11 µM and the growth inhibition ([9]; doses up to 50 µM) was “little or no growth inhibition”. For the same molecule, the “% Growth rate of MIA PaCa-2 cells” value ([10]; 25 µM) was 96%, the “% Growth rate of MIA PaCa-2 cells” value ([10]; 50 µM) was 80% and the growth inhibition ([10]; MIA PaCa-2, doses up to 50 µM) was “little or no growth inhibition; also recorded: no anti-proliferative activity”. The “% Growth rate of PA-TU-8902 cells” value ([11]; 25 µM) was 29%, the “% Growth rate of PA-TU-8902 cells” value ([11]; 50 µM) was 23% and the “cellular Rheb distribution” value [13] was “loss of inhibition for PDEδ-Rheb interaction”.

For CCOC(=O)N1CCC(Nc2c(NCCCBr)c(=O)c2=O)CC1 [compound 7], the “covalent modification of acid sites in UNC119B” value [14] was “covalently modified”.

For Cc1ccc(-n2nc3c(=O)n(CCCC(=O)N(CCCCCBr)CC4CCNCC4)nc(C)c3c2C)cc1 [3d], the “% covalent modification at 24 h” value [4] was 11 ± 4%.

For Cc1c(Cl)cccc1NC(=O)CCCn1nc(C)c2c(C)n(-c3ccccc3)nc2c1=O [Deltazinone derivative], the Kd [15] is given as 0.005 ± 0.002 µM.

With Cc1ccc(-n2nc3c(=O)n(CCCCS(=O)(=O)N(CCCCCBr)CC4CCNCC4)nc(C)c3c2C)cc1 [4b] the “% covalent modification at 24 h” value [4] was 23 ± 3%.

In the case of Cc1ccc(-n2nc3c(=O)n(CCCC(=O)NCCCCCBr)nc(C)c3c2C)cc1 [2d], the “% covalent modification at 24 h” value [4] is reported as 8 ± 5%.
